How the values were obtained:
TRPV ion channels = assay: TRPV ion channel activity: 2-APB-induced intracellular calcium change in nociceptive sensory cells (Fluo-4-AM); type: cell-based, white rats
Protocol: After fl 1 nociceptive sensory cell lines in white rats incubated with the compound of Formula 1 for 24 hours were pretreated, TRPV ion channel activities were measured. The fl 1 cell lines were treated with 2-APB (2-aminoethoxydiphenyl borate) as a pre-activator for TRPV ion channels, and intracellular calcium changes, which are triggered in response to the 2-APB treatment, were evaluated using a Fluo-4-AM fluorescent dye on a real time basis.

f11 neuron cell lines = assay: Inhibitory efficacy of fibroblast cell proliferation; type: cell-based; settings: f11 neuron cell lines treated for 72 hours; compared to control groups; FIG. 10
Protocol: After f11 neuron cell lines were treated with the compound of Formula 1 for 72 hours, the extents of cell differentiation were first compared/evaluated (see FIG. 10). […] Since fibroblast cell proliferation accompanies excessive collagen synthesis to make up for the dermis damaged by skin injury, scars can be left even after the damage recovery. Therefore, scar prevent or treating efficacy can be exerted by inhibiting the fibroblast proliferation.

Row | SMILES | intracellular calcium level after treatment with TRPV pre-activator (TRPV ion channels; fl 1 cell lines, transient within 20 seconds, reverted to base level in about 5 minutes) | increase in the intracellular calcium level induced by 2-APB (TRPV ion channels; fl 1 cell lines pre-treated with the compound for 24 hours, FIG. 9) | fibroblast cell proliferation and differentiation inhibitory efficacy (f11 neuron cell lines)
1 | NCCOB(c1ccccc1)c1ccccc1 [Formula 2-APB, 2-aminoethoxydiphenyl borate, reference compound] | sharp increase in the intracellular calcium level |  | 
2 | CC(C)c1ccc2c(c1)C=C[C@H]1[C@](C)(C(=O)O)CCC[C@]21C [Formula 1, abieta-6,8,11,13-tetraaen-18-oic acid] |  | strongly inhibited | improved fibroblast cell proliferation and differentiation inhibitory efficacy

Reference: patent US20190151266A1, “PHARMACEUTICAL COMPOSITION FOR TREATING OR PREVENTING BURN INJURIES” (priority 2016, published 2019)
